# Measured values taken from publication PMC6567057, “Pharmacokinetic, metabolic stability, plasma protein binding and CYP450s inhibition/induction assessment studies of N-(2-pyridylmethyl)-2-hydroxiymethyl-1-pyrrolidinyl-4-(3-chloro-4-methoxy-benzylamino)-5-pyrimidine-carboxamide as potential type 5 phosphodiesterase inhibitors” (Animal Cells and Systems, 2019).
# Legend:
# [1] = Plasma protein binding by equilibrium dialysis (human); format: in vitro ADME
# Experimental: (§1) The phosphate buffer (100 mM) and sodium hydroxide solution (1.0 M) were prepared in deionized water. […] PPB was determined by equilibrium dialysis method. An aliquot (150 μL) of NHPPC spiked plasma and phosphate buffer (pH 7.4) was added into the donor side and the receiver side of each designated well. The plate was covered with adhesive sealing film to prevent evaporation and placed in a water-bath shaker kept at 37°C for 6 h with a rate of 50 rpm. […] At the end of 6 h, aliquots were taken from each side of each well (n = 3) and kept in a −20°C freezer prior to analysis. The stability, device recovery and PPB were calculated using the following equations: Remaining at 6 h (%)=C6h/C0h×100%, Device recovery (%)=CDonor+CReceiver/C6h×100%, PPB (%)=CDonor−CReceiver/CDonor×100%.
# human plasma proteins = assay: as above; format: in vitro ADME; conditions: human plasma, mean of 0.2 and 1 µM
# Experimental: as §1
# [2] = In vitro metabolic stability in human liver microsomes; format: in vitro ADME; conditions: for remaining at 1 h, 1 µM: liver microsomes, pH 7.4, human liver microsomes, 60 min, read-out: percent remaining
# Experimental: (§2) The phosphate buffer (pH 7.4, 100 mM) and (300 mM) were prepared in deionized water. NADP and IA were dissolved in phosphate buffer and MgCl2 solution and then added 20 μL IDH (18 units/mg protein) and mixed. NHPPC (1 mM) and positive control drug were prepared by dilution using DMSO and then the NHPPC and positive control drug working solution (50 μM) were obtained by dilution using methanol: H2O (1:1, v/v) mixture. Pooled human, rat and dog liver microsomes were added to phosphate buffer pH7.4 to a concentration 20 mg/mL. NHPPC was incubated with liver microsomes. The incubation solution of the final reaction conditions contained 50 mM potassium phosphate buffer (pH 7.4), 0.5 mg protein/mL microsomes, 3 mM MgCl2, 2 mM NADPH and 1 μM NHPPC or positive control drug in a final volume of 100 μL. In sample and positive control groups, NADPH was added into the incubation solutions. In the negative control group, water (the replacement of NADPH) was added into the incubation solutions. Samples were incubated aerobically in a shaking water bath at 37°C and the reaction was terminated by adding 300 μL of ice cold acetonitrile (contain 100 ng/mL IS) at different interval 0, 5, 10, 20, 30 and 60 min. While positive control and negative control were incubated aerobically in a shaking water bath at 37°C for 0 and 60 min, respectively. NHPPC and control concentrations were determined by LC-MS/MS at each time point (n = 3). Calculation of t1/2 and CLint was performed by using following equations, where K is the elimination rate constant (min^−1) and QH is hepatic blood flow (mL/min/kg). t1/2=0.693/KCLint,in vitro=VD×KVD=Volume of reaction mixture(mL)/mg of protein per reation.
# (§3) Hepatic intrinsic clearance was estimated by using the scaling factors and calculated by using the following equation (Lave et al. [1997]). CLint,in vivo=CLint×mg microsomal protein per liver×g liver per kg body weight, Cint,H=CLint,in vivo×QH/CLint,in vivo+QH,EH=CLint,H/QH.
# [3] = Stability in plasma, 6 h incubation at 37°C (rat); format: in vitro ADME; conditions: Sprague-Dawley
# Experimental: as §1
# [4] = In vitro metabolic stability in rat liver microsomes; format: in vitro ADME; conditions: for remaining at 1 h, 1 µM: liver microsomes, pH 7.4, rat liver microsomes, 60 min, read-out: percent remaining
# Experimental: as §2, §3
# [5] = Plasma protein binding by equilibrium dialysis (rat); format: in vitro ADME, Sprague–Dawley rat; conditions: Sprague-Dawley
# Experimental: as §1
# rat plasma proteins = assay: as above; format: in vitro ADME, Sprague–Dawley rat; conditions: rat plasma, mean of 0.2 and 1 µM
# Experimental: as §1
# CYP3A4 = assay: CYP induction in human primary hepatocytes; format: in vitro ADME; conditions: CYP3A4, human primary hepatocytes of three batches, 0.10, 1.00 or 10.0 μM, 72 h
# Experimental: (§4) The hepatocytes were seeded on a collagenated 48-well plate for 24 h in an incubator at 37°C (moisturized, with 5% CO2). The hepatocytes were then incubated with the test article thereafter. The stock solutions of omeprazole (100 mM), rifampin (20.0 mM), testosterone (200 mM), phenacetin (100 mM) and NHPPC (50.0 mM) were prepared in DMSO, and were diluted using the cell culture medium. The DMSO content in the final solutions was 0.10%, the medium containing 0.10% DMSO was used as the blank control. The cells were co-incubated with the positive control inducers or NHPPC for 72 h and during the incubation the medium was changed every day. After the incubation, the medium was discarded and replaced with 200 μL phenol red-free culture medium containing 100 μM phenacetin (CYP1A2 probe substrate) or 200 μM testosterone (CYP3A4 probe substrate). After the incubation in the presence of the probe substrates at 37°C for 1 h, the supernatants were collected and stored at −80°C until analysis. All incubations were also conducted in triplicate. The generated metabolites of the CYP1A2 and CYP3A4 probe substrates were analyzed by LC/MS/MS methods. The induction effects of the positive control inducers and NHPPC were assessed by the amount of metabolites formed in the induced and uninduced hepatocytes. The percent induction of positive control was calculated using the following equation. […]
# CYP1A2 = assay: CYP induction in human primary hepatocytes; format: in vitro ADME; conditions: CYP1A2, human primary hepatocytes of three batches, 0.10, 1.00 or 10.0 μM, 72 h
# Experimental: as §4
compound,measurement,setting,value
"COc1ccc(CNc2nc(N3CCC[C@H]3CO)ncc2C(=O)NCc2ccccn2)cc1Cl [NHPPC, N-(2-pyridylmethyl)-2-hydroxiymethyl-1-pyrrolidinyl-4-(3-chloro-4-methoxy-benzylamino)-5-pyrimidine-carboxamide]","fraction unbound at 6 h, 0.2 µM","[1]; human, plasma, pH 7.4, human plasma, 0.2 µM, equilibrium dialysis 6 h, read-out: Mean PPB % (converted)",0.007
same,"fraction unbound at 6 h, 1 µM","[1]; human, plasma, pH 7.4, human plasma, 1 µM, equilibrium dialysis 6 h, read-out: Mean PPB % (converted)",0.005
same,"recovery at 6 h, 0.2 μM","[1]; pH 7.4, human plasma, equilibrium dialysis, n = 3, read-out: Mean device recovery %",101.2 ± 0.02%
same,Mean PPB %,human plasma proteins,99.4 ± 0.13%
same,"remaining at 1 h, 1 µM","[2]; human, in the presence of NADPH, 1 μM",42%
same,"remaining at 1 h, 1 µM","[2]; human, without NADPH regenerating system",99.4%
same,ranking for clearance,"[2]; human, ranking criteria of Houston 1994, Kerns and Di 2008",middle clearance
same,CLH,"[2]; human, scaled from liver microsomes",9.80 mL/min/kg
same,half-life at 1 µM,"[2]; liver microsomes (pooled), pH 7.4, human liver microsomes",46.2 min
same,microsomal CLint at 1 µM,"[2]; liver microsomes (pooled), pH 7.4, human liver microsomes, read-out: CLint, ivtro",21.4 µL/min/mg
same,k el at 1 µM,"[2]; liver microsomes (pooled), pH 7.4, human liver microsomes, read-out: Ke (converted)",0.00025 s⁻¹
same,"remaining at 6 h, 0.2 µM","[3]; 0.2 µM, n = 3, read-out: Mean drug remaining %",100 ± 1.93%
same,"remaining at 6 h, 1 µM","[3]; 1 µM, n = 3, read-out: Mean drug remaining %",102 ± 1.26%
same,remaining at 6 h,"[3]; mean of 0.2 and 1 µM, read-out: Mean drug remaining %",101 ± 1.01%
same,half-life at 1 µM,"[4]; pH 7.4, rat liver microsomes",42.5 min
same,microsomal CLint at 1 µM,"[4]; pH 7.4, rat liver microsomes, read-out: CLint, ivtro",23.3 µL/min/mg
same,k el at 1 µM,"[4]; pH 7.4, rat liver microsomes, read-out: Ke (converted)",0.000272 s⁻¹
same,"remaining at 1 h, 1 µM","[4]; rat, in the presence of NADPH, 1 μM",42.8%
same,"remaining at 1 h, 1 µM","[4]; rat, without NADPH regenerating system",102%
same,ranking for clearance,"[4]; rat, ranking criteria of Houston 1994, Kerns and Di 2008",middle clearance
same,CLH,"[4]; rat, scaled from liver microsomes",27.5 mL/min/kg
same,"recovery at 6 h, 0.2 μM","[5]; pH 7.4, rat plasma, equilibrium dialysis, n = 3, read-out: Mean device recovery %",98.6 ± 0.13%
same,"fraction unbound at 6 h, 0.2 µM","[5]; rat, plasma, pH 7.4, rat plasma, 0.2 µM, equilibrium dialysis 6 h, read-out: Mean PPB % (converted)",0.043
same,"fraction unbound at 6 h, 1 µM","[5]; rat, plasma, pH 7.4, rat plasma, 1 µM, equilibrium dialysis 6 h, read-out: Mean PPB % (converted)",0.033
same,fraction unbound at 6 h,"[5]; rat, plasma, pH 7.4, rat plasma, mean of 0.2 and 1 µM, read-out: Mean PPB %",< 0.05
same,Mean PPB %,rat plasma proteins,96.2 ± 0.18%
same,percent induction of positive control,CYP3A4,less than 40%
same,percent induction of positive control,CYP1A2,less than 40%
